Experimental findings from US20070191372A1, “Dna-targeted benzotriazine 1,4-dioxides and their use in cancer therapy” (Auckland Uniservices Limited, priority 2002, published 2007) are described below.

The test system of series [1] is human colon carcinoma HT-29. The experiment in a line: Proliferation assay (IC50) under aerobic and hypoxic conditions, HT-29. Type of series: cell-based. The note with it: for RHT: HT-29, ratio Tirapazamine/test compound under hypoxic conditions; for HCR: HT-29, ratio of IC50 under aerobic and hypoxic conditions; for IC50: Homo sapiens, HT-29, hypoxic (anoxia <0.001% O2), 4 h exposure. Here is the method:
(§1) Evaluation of the Cytotoxicity of Compounds by Proliferation Assay (IC50) Under Aerobic and Hypoxic Conditions.
(§2) Compounds representative of the invention were evaluated under both aerobic and hypoxic conditions in a proliferation assay (IC50), using two cell lines: human colon carcinoma HT-29, and human cervical carcinoma SiHa.
(§3) Drug exposures were performed in 96-well plates (Nunc) using either a 37° C. humidified incubator (20% O2, 5% CO2) or in the incubator compartment (37° C.) of an anaerobic chamber (Shell Lab) where palladium catalyst scrubbed gas (90% N2, 5% H2, 5% CO2) ensures severe anoxia (<0.001% O2). For each experiment, compounds were simultaneously tested under both oxic and hypoxic conditions against the HT-29 cell line and included TPZ as an independent internal control at the front and back of the assay (n=2). Final data was pooled from a series of seven independent experiments and is calculated using inter-experimental means. In all cases, 8-methyl-5-nitroquinoline was used as a second internal control to confirm that strict hypoxia was present during the experiment. (Siim et al. Br. J. Cancer 1994, 70, 596-603). Cell cultures were grown in αMEM (Gibco) containing 5% heat inactivated FCS and maintained in exponential growth phase. For each individual experiment an appropriate number of cells were seeded (HT-29=1000) into wells in αMEM÷10% FCS+10 mM added glucose+100 μM 2′-deoxycytidine (2′dCyd), and allowed to attach for 3 h. High glucose (final concentration 17 mM) and the presence of 2′-dCyd minimize hypoxia-induced cell cycle arrest. Replicates were then exposed to BTOs, using 2-fold serial dilutions in triplicate, for a further 4 h. Subsequently cells were washed free of compound using complete media (without glucose/2′-dCyd) and allowed to grow for 5 (oxic) or 6 (anoxic) days. Plates were stained as described previously (Wilson et al., J. Med. Chem. 1989, 32, 31-38) and IC50 values determined.
(§4) IC50=The concentration of drug (in micromolar) to reduce viable cell numbers to 50% of those of control cell cultures grown under the same conditions but not exposed to drug
(§5) RHT=Relative hypoxic toxicity is defined as the ratio of concentrations of Tirapazamine/test compound to give equal cell killing under hypoxic conditions.
(§6) HCR=Hypoxic cytotoxicity ratio is defined as the ratio of drug concentrations under aerobic and hypoxic condition to produce equal cell survival (50%) determined by proliferation assay

A further series has as its system murine SCCVII. In words: Clonogenic assay under aerobic and hypoxic conditions, SCCVII. The note with it: SCVIII cells; for IC90: Mus musculus, 1 h, hypoxic, 60 min drug exposure, SN (hypoxic), read-out: C10 hypoxic; for HCR: ratio of C10 under aerobic and hypoxic conditions; for RHT: ratio of hypoxic TPZ C10 to hypoxic compound C10. Type of series: cell-based. On the procedure: Evaluation of the Cytotoxicity of Compounds by Clonogenic Assay Under Aerobic and Hypoxic Conditions.
Compounds representative of the invention were evaluated under both aerobic and hypoxic conditions in clonogenic assays, using three cell lines: human colon carcinoma HT-29, murine SCCVII, and human lung adenocarcinoma LXFL. Clonogenic survival was determined using aerobic and hypoxic SCCVII cell suspensions. Drug exposures were performed using continuously stirred and gassed single cell suspensions (10^6 cells/mL) at 37° C., equilibrated with 5% CO2 in air or N2 for 60 min before drug addition. After a 60 min drug exposure cells were washed by centrifugation and plated to determine colony formation Cytotoxicity was measured as the concentration required to reduce plating efficiency to 10% of controls (C10). The hypoxic cytotoxicity ratio (HCR) was determined as the ratio of the C10 values under aerobic and hypoxic conditions. The relative hypoxic toxicity (RHT) was determined as the ratio of hypoxic TPZ C10 to hypoxic BTO C10. Abbreviations used in Table 2 are:
C10=The concentration of drug (in micromolar) to reduce viable cell numbers to 10% of those of control cell cultures grown under the same conditions but not exposed to drug
as §5
HCR=Hypoxic cytotoxicity ratio is defined as the ratio of drug concentrations under aerobic and hypoxic condition to produce equal cell survival (10%) determined by clonogenic assay

The test system of series [2] is human cervical carcinoma SiHa. The experiment in a line: Proliferation assay (IC50) under aerobic and hypoxic conditions, SiHa. Type of series: cell-based. To be noted: for IC50: Homo sapiens, hypoxic, 4 h exposure; for RHT: ratio Tirapazamine/test compound under hypoxic conditions; for HCR: ratio of IC50 under aerobic and hypoxic conditions. On the procedure: as §1, §2, §3, §4, §5, §6

Usually IC50 stands for the concentration that gives 50% inhibition. The term melting point denotes the temperature of the solid-liquid transition.

With `Cl.O=C(NCCCNCCCNc1n[n+]([O-])c2ccccc2[n+]1[O-])c1cccc2nc3ccccc3nc12` [Compound 31, N-[3-({3-[(1,4-dioxido-1,2,4-benzotriazin-3-yl)amino]propyl}amino)propyl]-1-phenazinecarboxamide hydrochloride], the melting point was in the range of 163 to 169 °C. In series [1], the RHT is on record as 163, the HCR is recorded as 5.3 and half-maximal inhibition (IC50) required 356 nM.

In turn, `Cc1cccc2nc3c(C(=O)NCCCN(C)CCCNc4n[n+]([O-])c5ccccc5[n+]4[O-])cccc3nc12` [Compound 45, N-{3-[{3-[(1,4-Dioxido-1,2,4-benzotriazin-3-yl)amino]propyl}(methyl)amino]-propyl}-9-methyl-4-phenazinecarboxamide] displayed a melting point of 138 to 142 °C. In the series on murine SCCVII, the IC90 was determined as 310 nM, the HCR stood at 23.9 and the RHT is 29. For the same molecule, in series [1], the RHT came out at 321, the HCR was found to be 31 and the IC50 stood at 18 nM.

For the molecule `Cc1ccc2c(c1)[n+]([O-])nc(NCCCN(C)CCCNC(=O)c1cccc3cc4ccccc4nc13)[n+]2[O-]` [Compound 74, N-[3-(Methyl{3-[(7-methyl-1,4-dioxido-1,2,4-benzotriazin-3-yl)amino]propyl}amino)propyl]-4-acridinecarboxamide], the melting point was 166 to 168 °C. Also, in series [1], the RHT is 44.7, the HCR is 95 and inhibition was half-maximal at 130 nM (IC50).

`Cc1ccc2c(c1)[n+]([O-])nc(NCCCN(C)CCCNC(=O)c1cccc3ccc(-c4ccncc4)nc13)[n+]2[O-]` [Compound 75, N-[3-(Methyl{3-[(7-methyl-1,4-dioxido-1,2,4-benzotriazin-3-yl)amino]propyl}amino)propyl]-2-(4-pyridinyl)-8-quinolinecarboxamide]: the melting point is 178 to 180 °C. Also, in series [2], the IC50 came out at 70 nM, the RHT is 53 and the HCR came to 110. In series [1], the RHT is recorded as 29, the HCR stood at 92 and inhibition was half-maximal at 200 nM (IC50).

`Cc1ccc2c(c1)[n+]([O-])nc(NCCCN(C)CCCNC(=O)c1cccc3nc4ccccc4nc13)[n+]2[O-]` [Compound 76, N-[3-(Methyl{3-[(7-methyl-1,4-dioxido-1,2,4-benzotriazin-3-yl)amino]propyl}amino)propyl]-1-phenazinecarboxamide] had a melting point of 118 to 122 °C.

Consider `Cc1ccc2c(c1)[n+]([O-])nc(NCCCNCCCNC(=O)c1cccc3nc4cccc(C)c4nc13)[n+]2[O-]` [Compound 77, 9-Methyl-N-[3-({3-[(7-methyl-1,4-dioxido-1,2,4-benzotriazin-3-yl)amino]propyl}amino)propyl]-1-phenazinecarboxamide], for which the melting point fell in the range of 119 to 122 °C.

`Cc1ccc2c(c1)[n+]([O-])c(NCCCN(C)CCCNC(=O)c1cccc3ccc(-c4ccncc4)nc13)n[n+]2[O-]` [Compound 86, N-[3-(Methyl{3-[(6-methyl-1,4-dioxido-1,2,4-benzotriazin-3-yl)amino]propyl}amino)propyl]-2-(4-pyridinyl)-8-quinolinecarboxamide]: the melting point lay in the range of 178 to 180 °C. Also, in series [2], the 50% inhibitory concentration (IC50) is 105 nM, the RHT was determined as 35 and the HCR was determined as 136. For the same molecule, in series [1], the RHT is 66, the HCR is reported as 168 and the IC50 came to 225 nM.

Turning to `Cc1ccc2c(c1)[n+]([O-])c(NCCCN(C)CCCNC(=O)c1cccc3nc4ccccc4nc13)n[n+]2[O-]` [Compound 87, N-[3-(Methyl{3-[(6-methyl-1,4-dioxido-1,2,4-benzotriazin-3-yl)amino]propyl}amino)propyl]-1-phenazinecarboxamide], the melting point is 111 to 114 °C.

In turn, `Cc1ccc2c(c1)[n+]([O-])c(NCCCNCCCNC(=O)c1cccc3nc4cccc(C)c4nc13)n[n+]2[O-]` [Compound 88, 9-Methyl-N-[3-({3-[(6-methyl-1,4-dioxido-1,2,4-benzotriazin-3-yl)amino]propyl}amino)propyl]-1-phenazinecarboxamide] registered a melting point of 80 to 83 °C.

As for `CN(CCNC(=O)c1cccc2nc3ccccc3nc12)CCNc1n[n+]([O-])c2ccccc2[n+]1[O-]` [Compound 97, N-{2-[{2-[(1,4-Dioxido-1,2,4-benzotriazin-3-yl)amino]ethyl}(methyl)amino]ethyl}-1-phenazinecarboxamide], the melting point was 163 to 165 °C.

`Cc1cccc2nc3cccc(C(=O)NCCN(C)CCNc4n[n+]([O-])c5ccccc5[n+]4[O-])c3nc12` [Compound 98, N-{2-[{2-[(1,4-Dioxido-1,2,4-benzotriazin-3-yl)amino]ethyl}(methyl)amino]ethyl}-9-methyl-1-phenazinecarboxamide] had a melting point of 161 to 163 °C. Besides, in series [2], half-maximal inhibition (IC50) required 75 nM, the RHT is 63 and the HCR came to 30. In series [1], the RHT is reported as 114, the HCR was 45 and the concentration for half-maximal inhibition (IC50) was found to be 135 nM.

In the case of `Cc1cccc2cc3cccc(C(=O)NCCN(C)CCNc4n[n+]([O-])c5ccccc5[n+]4[O-])c3nc12` [Compound 99, N-{2-[{2-[(1,4-Dioxido-1,2,4-benzotriazin-3-yl)amino]ethyl}(methyl)amino]ethyl}-5-methyl-4-acridinecarboxamide], the melting point lay in the range of 148 to 152 °C. Also, in the series on murine SCCVII, the IC90 was 290 nM, the HCR came out at 176 and the RHT was 17.2. Further, in series [1], the RHT was found to be 14, the HCR is given as 25 and inhibition was half-maximal at 410 nM (IC50).

`O=C(NCCNCCNc1n[n+]([O-])c2ccccc2[n+]1[O-])c1cccc2ccc(-c3ccncc3)nc12` [Compound 102, N-[2-({2-[(1,4-Dioxido-1,2,4-benzotriazin-3-yl)amino]ethyl}amino)ethyl]-2-(4-pyridinyl)-8-quinolinecarboxamide] had a melting point of 160 to 165 °C. In series [2], the half-maximal inhibitory concentration (IC50) is 160 nM, the RHT was determined as 23 and the HCR came to 53. For the same molecule, in series [1], the RHT is listed as 12, the HCR is reported as 54 and it took 490 nM to reach half-maximal inhibition (IC50).

In turn, `Cc1cccc2cc3cccc(C(=O)NCCNCCNc4n[n+]([O-])c5ccccc5[n+]4[O-])c3nc12` [Compound 103, N-[2-({2-[(1,4-Dioxido-1,2,4-benzotriazin-3-yl)amino]ethyl}amino)ethyl]-5-methyl-4-acridinecarboxamide] showed a melting point of 135 to 140 °C. For the same molecule, in series [2], the midpoint of inhibition, the IC50, lay at 10 nM; the RHT stood at 309; the HCR was 118. Also, in series [1], the RHT was 357, the HCR is on record as 83 and the IC50 came to 35 nM.

Consider `CN(C)CCCC(=O)c1cc(NC(=O)c2cc(NC(=O)CCCNc3n[n+]([O-])c4ccccc4[n+]3[O-])cn2C)cn1C` [Compound 112, N-{5-[4-(Dimethylamino)butanoyl]-1-methyl-1H-pyrrol-3-yl}-4-({4-[(1,4-dioxido-1,2,4-benzotriazin-3-yl)amino]butanoyl}amino)-1-methyl-1H-pyrrole-2-carboxamide], for which the melting point is 140 to 145 °C.
